In article PMC4197230, “Terpene synthases and their contribution to herbivore-induced volatile emission in western balsam poplar (Populus trichocarpa)” (BMC Plant Biology, 2014):

Legend:
Assay type in all cases: biochemical
PtTPS15 = target: T1, PtTPS15 (Populus trichocarpa, UniProt A0A076GBT1); assay: SPME GC-MS product analysis, bacterial extract; details: 10 mM MgCl2, pH 7.0, 30 C, desalted E. coli extract, empty-vector control
T1 construct: gene TPS15; full ORF in pASK-IBA7 (vector tag, if any, not described), E. coli TOP10, desalted bacterial extract
T1 sequence (A0A076GBT1 1-528): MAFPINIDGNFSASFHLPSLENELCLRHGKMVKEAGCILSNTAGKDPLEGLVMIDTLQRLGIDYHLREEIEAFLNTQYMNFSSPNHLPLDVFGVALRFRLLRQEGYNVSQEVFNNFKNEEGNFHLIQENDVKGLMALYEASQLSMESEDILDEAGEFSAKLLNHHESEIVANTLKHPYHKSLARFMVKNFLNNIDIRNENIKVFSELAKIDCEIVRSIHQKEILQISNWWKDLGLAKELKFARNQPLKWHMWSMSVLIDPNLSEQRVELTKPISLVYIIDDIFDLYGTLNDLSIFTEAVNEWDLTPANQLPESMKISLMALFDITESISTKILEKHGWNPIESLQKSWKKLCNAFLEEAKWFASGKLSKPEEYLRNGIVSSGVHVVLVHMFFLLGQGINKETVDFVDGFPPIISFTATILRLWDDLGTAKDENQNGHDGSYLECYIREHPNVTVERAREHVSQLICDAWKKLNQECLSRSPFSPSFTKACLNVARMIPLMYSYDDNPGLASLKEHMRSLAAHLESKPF

PtTPS9 = target: T2, PtTPS9 (Populus trichocarpa, UniProt A0A076GBT5); assay: SPME GC-MS product analysis, bacterial extract; details: 10 uM FPP, 10 mM MgCl2, pH 7.0, 30 C; desalted E. coli extract, empty-vector control
T2 construct: gene TPS9; full ORF in pASK-IBA7 (vector tag, if any, not described), E. coli TOP10, desalted bacterial extract
T2 sequence (A0A076GBT5 1-569): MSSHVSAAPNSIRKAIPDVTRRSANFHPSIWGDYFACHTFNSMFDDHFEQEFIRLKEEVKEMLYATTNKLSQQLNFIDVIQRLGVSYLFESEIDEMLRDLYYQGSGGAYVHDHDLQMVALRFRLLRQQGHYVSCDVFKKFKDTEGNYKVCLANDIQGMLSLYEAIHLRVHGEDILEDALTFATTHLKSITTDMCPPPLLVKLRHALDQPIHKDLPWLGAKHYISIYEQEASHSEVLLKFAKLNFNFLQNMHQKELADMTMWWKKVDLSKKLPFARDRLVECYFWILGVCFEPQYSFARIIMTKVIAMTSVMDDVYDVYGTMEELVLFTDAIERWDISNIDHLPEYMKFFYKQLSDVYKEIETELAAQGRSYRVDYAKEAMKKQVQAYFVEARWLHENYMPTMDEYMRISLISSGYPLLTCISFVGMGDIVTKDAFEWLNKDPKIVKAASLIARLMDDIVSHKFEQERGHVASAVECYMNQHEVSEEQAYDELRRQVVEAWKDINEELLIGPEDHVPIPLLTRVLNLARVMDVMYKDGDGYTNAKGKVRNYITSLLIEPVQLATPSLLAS

PtTPS12 = target: T3, PtTPS12 (Populus trichocarpa, UniProt A0A076GAU9); assay: SPME GC-MS product analysis, bacterial extract; details: 10 mM MgCl2, pH 7.0, 30 C, desalted E. coli extract, empty-vector control
T3 construct: gene TPS12; N-terminally truncated (first 126 nt deleted, predicted plastid transit peptide), pASK-IBA7, E. coli TOP10, desalted bacterial extract
T3 sequence (A0A076GAU9 entry or part of it): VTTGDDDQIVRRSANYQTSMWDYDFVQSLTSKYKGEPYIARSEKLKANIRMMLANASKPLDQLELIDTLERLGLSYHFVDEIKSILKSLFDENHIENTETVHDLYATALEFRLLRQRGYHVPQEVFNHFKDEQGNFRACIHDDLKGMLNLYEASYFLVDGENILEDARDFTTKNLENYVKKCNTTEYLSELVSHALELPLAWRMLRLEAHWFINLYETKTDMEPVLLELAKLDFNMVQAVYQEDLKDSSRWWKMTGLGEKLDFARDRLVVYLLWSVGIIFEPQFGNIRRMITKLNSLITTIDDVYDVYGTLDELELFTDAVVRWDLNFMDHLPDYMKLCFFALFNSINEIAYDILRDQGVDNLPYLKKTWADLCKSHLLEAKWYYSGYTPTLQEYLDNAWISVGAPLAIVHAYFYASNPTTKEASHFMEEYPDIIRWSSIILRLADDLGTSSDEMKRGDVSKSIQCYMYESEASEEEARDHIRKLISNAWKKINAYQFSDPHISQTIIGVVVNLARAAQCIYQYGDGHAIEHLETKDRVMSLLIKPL

PtTPS14 = target: T4, PtTPS14 (Populus trichocarpa, UniProt A0A076GBU1); assay: SPME GC-MS product analysis, bacterial extract; details: 10 uM FPP, 10 mM MgCl2, pH 7.0, 30 C; desalted E. coli extract, empty-vector control; marginal activity
T4 construct: gene TPS14; full ORF in pASK-IBA7 (vector tag, if any, not described), E. coli TOP10, desalted bacterial extract
T4 sequence (A0A076GBU1 1-560): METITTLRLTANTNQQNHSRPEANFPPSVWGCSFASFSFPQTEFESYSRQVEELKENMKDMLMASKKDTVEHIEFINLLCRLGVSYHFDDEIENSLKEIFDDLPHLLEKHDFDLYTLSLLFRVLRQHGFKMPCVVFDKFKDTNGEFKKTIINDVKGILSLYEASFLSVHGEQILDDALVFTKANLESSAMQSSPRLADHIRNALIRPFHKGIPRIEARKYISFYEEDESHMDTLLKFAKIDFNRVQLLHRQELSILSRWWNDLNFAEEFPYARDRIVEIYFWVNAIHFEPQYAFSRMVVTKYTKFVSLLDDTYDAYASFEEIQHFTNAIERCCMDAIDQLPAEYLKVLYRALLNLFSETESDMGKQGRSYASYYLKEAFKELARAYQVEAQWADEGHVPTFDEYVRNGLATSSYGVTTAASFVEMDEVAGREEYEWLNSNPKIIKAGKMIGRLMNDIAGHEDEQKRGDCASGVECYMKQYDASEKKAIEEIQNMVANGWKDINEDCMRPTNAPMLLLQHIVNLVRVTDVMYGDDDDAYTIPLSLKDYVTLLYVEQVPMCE

PtTPS10 = target: T5, PtTPS10 (Populus trichocarpa, UniProt A0A076GH23); assay: hexane overlay GC-MS product analysis, bacterial extract; details: 50 uM GGPP, 10 mM MgCl2, pH 7.0, 30 C, 60 min; desalted E. coli extract, empty-vector control
T5 construct: gene TPS10; full ORF in pASK-IBA7 (vector tag, if any, not described), E. coli TOP10, desalted bacterial extract
T5 sequence (A0A076GH23 1-836): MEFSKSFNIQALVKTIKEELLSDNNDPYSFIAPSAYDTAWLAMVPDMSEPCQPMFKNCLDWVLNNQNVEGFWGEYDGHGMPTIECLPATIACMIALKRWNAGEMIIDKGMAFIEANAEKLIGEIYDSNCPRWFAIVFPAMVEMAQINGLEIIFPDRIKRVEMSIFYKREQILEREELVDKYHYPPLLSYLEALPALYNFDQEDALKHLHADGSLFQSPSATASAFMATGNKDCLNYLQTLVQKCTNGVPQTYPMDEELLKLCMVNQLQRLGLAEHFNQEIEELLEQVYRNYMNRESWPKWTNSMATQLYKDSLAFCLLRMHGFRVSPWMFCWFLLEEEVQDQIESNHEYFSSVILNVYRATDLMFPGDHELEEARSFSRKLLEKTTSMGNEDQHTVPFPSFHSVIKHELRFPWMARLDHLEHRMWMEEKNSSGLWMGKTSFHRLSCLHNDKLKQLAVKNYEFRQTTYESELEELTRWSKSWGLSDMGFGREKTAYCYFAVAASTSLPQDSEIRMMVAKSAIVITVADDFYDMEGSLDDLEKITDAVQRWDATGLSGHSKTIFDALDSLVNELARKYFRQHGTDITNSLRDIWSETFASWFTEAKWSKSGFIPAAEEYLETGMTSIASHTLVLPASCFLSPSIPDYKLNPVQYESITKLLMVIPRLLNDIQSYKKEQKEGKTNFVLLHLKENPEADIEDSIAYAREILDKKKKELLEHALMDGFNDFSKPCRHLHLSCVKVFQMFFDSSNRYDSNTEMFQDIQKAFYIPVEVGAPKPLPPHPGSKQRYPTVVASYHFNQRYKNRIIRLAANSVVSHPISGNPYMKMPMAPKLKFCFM

PtTPS11 = target: T6, PtTPS11 (Populus trichocarpa, UniProt A0A076GAR6); assay: SPME GC-MS product analysis, bacterial extract; details: 10 uM GPP, 10 mM MgCl2, pH 7.0, 30 C; desalted E. coli extract, empty-vector control
T6 construct: gene TPS11; full ORF in pASK-IBA7 (vector tag, if any, not described), E. coli TOP10, desalted bacterial extract
T6 sequence (A0A076GAR6 1-551): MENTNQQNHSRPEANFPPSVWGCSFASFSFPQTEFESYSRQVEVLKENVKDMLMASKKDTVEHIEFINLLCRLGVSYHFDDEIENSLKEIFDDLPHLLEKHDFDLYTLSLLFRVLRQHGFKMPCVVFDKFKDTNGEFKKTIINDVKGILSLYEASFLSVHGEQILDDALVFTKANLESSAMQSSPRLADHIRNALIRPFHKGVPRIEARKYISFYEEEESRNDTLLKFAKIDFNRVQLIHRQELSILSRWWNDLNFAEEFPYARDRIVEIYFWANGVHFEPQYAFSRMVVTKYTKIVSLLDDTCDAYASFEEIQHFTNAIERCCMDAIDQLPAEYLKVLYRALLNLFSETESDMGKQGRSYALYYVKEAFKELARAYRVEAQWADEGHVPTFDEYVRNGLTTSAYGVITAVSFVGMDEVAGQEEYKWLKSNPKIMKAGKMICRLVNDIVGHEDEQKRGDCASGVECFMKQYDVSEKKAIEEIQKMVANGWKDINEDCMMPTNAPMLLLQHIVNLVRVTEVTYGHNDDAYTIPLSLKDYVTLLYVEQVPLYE

PtTPS6 = target: T7, PtTPS6 (Populus trichocarpa, UniProt A0A076GAR5); assay: SPME GC-MS product analysis, bacterial extract; details: 10 uM GPP, 10 mM MgCl2, pH 7.0, 30 C; desalted E. coli extract, empty-vector control
T7 construct: gene TPS6; N-terminally truncated (first 57 nt deleted, predicted plastid transit peptide), pASK-IBA7, E. coli TOP10, desalted bacterial extract
T7 sequence (A0A076GAR5 entry or part of it): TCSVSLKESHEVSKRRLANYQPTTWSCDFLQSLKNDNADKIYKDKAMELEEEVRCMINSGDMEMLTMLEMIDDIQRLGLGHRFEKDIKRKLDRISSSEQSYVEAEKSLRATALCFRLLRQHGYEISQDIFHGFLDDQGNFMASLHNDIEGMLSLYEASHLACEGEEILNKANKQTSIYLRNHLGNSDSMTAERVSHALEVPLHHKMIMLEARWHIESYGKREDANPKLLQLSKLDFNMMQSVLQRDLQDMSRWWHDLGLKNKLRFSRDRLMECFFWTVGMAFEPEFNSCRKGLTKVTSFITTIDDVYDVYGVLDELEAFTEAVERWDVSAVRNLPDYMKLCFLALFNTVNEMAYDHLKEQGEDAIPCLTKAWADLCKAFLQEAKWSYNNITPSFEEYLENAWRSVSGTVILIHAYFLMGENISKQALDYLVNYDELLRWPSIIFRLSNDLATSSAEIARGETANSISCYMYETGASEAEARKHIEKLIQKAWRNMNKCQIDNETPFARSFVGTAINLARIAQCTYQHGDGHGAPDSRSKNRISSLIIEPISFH

CC(C)=CCC/C(C)=C/CC/C(C)=C/COP(=O)(O)OP(=O)(O)O [FPP]
SPME GC-MS product analysis, bacterial extract (PtTPS15; 10 uM FPP): PtTPS15 was able to convert FPP to nerolidol
SPME GC-MS product analysis, bacterial extract (PtTPS9): PtTPS9 produced (E)-β-caryophyllene and smaller amounts of α-humulene
SPME GC-MS product analysis, bacterial extract (PtTPS12; 10 uM FPP): PtTPS12 showed a broad sesquiterpene product spectrum
SPME GC-MS product analysis, bacterial extract (PtTPS14): PtTPS14 showed only marginal activity with FPP and produced trace amounts of germacrene D

CC(C)=CCC/C(C)=C/CC/C(C)=C/CC/C(C)=C/COP(=O)(O)OP(=O)(O)O [GGPP]
hexane overlay GC-MS product analysis, bacterial extract (PtTPS10): PtTPS10 represented a DTS and was able to convert GGPP into geranyllinalool

CC(C)=CCC/C(C)=C/COP(=O)(O)OP(=O)(O)O [GPP]
SPME GC-MS product analysis, bacterial extract (PtTPS11): When offered GPP as a substrate, PtTPS11 formed several monoterpenes
SPME GC-MS product analysis, bacterial extract (PtTPS15; 10 uM GPP): PtTPS15, which produced only linalool
SPME GC-MS product analysis, bacterial extract (PtTPS12; 10 uM GPP): PtTPS12 which formed linalool and trace amounts of β-phellandrene
SPME GC-MS product analysis, bacterial extract (PtTPS6): (PtTPS6, PtTPS12, PtTPS13 and PtTPS15) accepted GPP as substrate and produced monoterpenes
